Like-named read-outs stand apart in the source and are kept apart here.
Legend:
[1] = test system: SKBR3 therapy resistant variants; assay: Mammosphere assay, therapy resistant SKBR3 variants; conditions: therapy resistant variants treated with gefitinib or lapatinib
[2] = test system: SKBR3 lapatinib resistant cells; assay: Caspase-Glo 3/7 apoptosis assay, lapatinib resistant SKBR3 cells; assay type: cell-based, human
Method: (§1) FIG. 3A-3B. Apoptosis in therapy sensitive and resistant variants Apoptosis in therapy sensitive and resistant SKBR3 cell variants was detected by a Caspase-Glo 3/7 Assay. (A) Fold change in Caspase 3/7 activity in the therapy sensitive SKBR3 cell line following Gef or Lap treatment for 48 h compared to the vehicle controls. (B) Fold change in caspase 3/7 activity in the therapy resistant cell lines following treatment compared to non-treated cells. N=3±SEM, *=p≤0.05, ***=p≤0.005
(§2) FIG. 6A-6F. […] N=3±SEM *=p≤0.05, **=p≤0.01****=p≤0.001.
(§3) Apoptosis was analyzed by the Caspase-Glo 3/7 activity assay (Promega) as described by the manufacturer. Briefly, cells were seeded in a 96 well plate and treated for 48h. Luminogenic caspase- 3/7 substrate containing a DEVD sequence was added and incubated for 1h. The luminescence was measured by a plate-reading luminometer.

[3] = test system: SKBR3 lapatinib resistant (Lap.R) cells; assay: MTT cell viability assay, lapatinib resistant SKBR3 variant; conditions: for decrease in cell viability: Lap.R SKBR3
[4] = test system: MDA-MB-435 HER2+ cells resistant to lapatinib and trastuzumab; assay: MTT cell viability assay, therapy resistant MDA-MB-435 variant; assay type: cell-based; conditions: 48 h
[5] = test system: SKBR3 therapy sensitive cells; assay: Mammosphere assay, therapy sensitive SKBR3 cells; conditions: 0.5 μM gefitinib or 0.1 μM lapatinib
HER2 = HER2 (Homo sapiens, UniProt P04626)
Rac [6] = assay: Effective concentration of Rac inhibitors; conditions: relative to NSC23766
[7] = test system: Trastuzumab resistant SKBR3 cells; assay: MTT cell viability assay, Trastuzumab resistant SKBR3 variant; assay type: cell-based; conditions: Homo sapiens; for cytotoxicity at 0.25 µM: SK-BR-3
[8] = test system: HER2+ and EGFR+breast cancer cells; assay: Mammosphere forming efficiency with Rac inhibitors; assay type: cell-based
[9] = test system: gefitinib resistant SKBR3 variants; assay: Cell phenotype of gefitinib resistant SKBR3 variants after Rac inhibitor; assay type: cell-based, human
[10] = test system: Trastuzumab resistant SKBR3 variant; assay: Caspase 3/7 apoptosis assay, Trastuzumab resistant SKBR3 variant; assay type: cell-based, human
Rac [11] = conditions: Tiam1/Rac inhibitor, most studies; cited from earlier work
[12] = test system: SKBR3 therapy sensitive cells; assay: Caspase-Glo 3/7 apoptosis assay, therapy sensitive SKBR3 cells; assay type: cell-based, human; conditions: gefitinib, 48 h, vs vehicle
Method: as §1, §3

[13] = test system: SKBR3 gefitinib resistant (Gef.R) cells; assay type: cell-based, human
[14] = test system: SKBR3 therapy sensitive cells; assay: MTT cell viability assay, therapy sensitive SKBR3 cells; assay type: cell-based, human; conditions: 5 and 10 μM, 24 h
Text: as §2

[15] = MBQ-167 250 nM, Lapatinib resistant SKBR3

In the case of `CS(=O)(=O)CCNCc1ccc(-c2ccc3ncnc(Nc4ccc(OCc5cccc(F)c5)c(Cl)c4)c3c2)o1` [lapatinib], the mammosphere formation [1] is reported as “no significant effect on mammosphere formation”, the “caspase 3/7 activity” value ([2]; lapatinib resistant variant in response to lapatinib) is reported as “significant decrease in caspase 3/7 activity” and the cell viability ([3]; Lap.R cells, lapatinib alone) is reported as “did not affect the viability”. For the same molecule, the “sensitivity of cell viability” value ([4]; single agent) was “insensitive”, the mammosphere formation [5] was “significant reduction in mammosphere formation” and the “expression of total HER2” value (HER2; sensitive SKBR3 cells, 24 h, 0.5 μM gefitinib, 0.1 μM lapatinib) was “significantly elevated”. For the same molecule, the pHER2 levels (HER2; variants resistant to gefitinib 0.1 μM and lapatinib 0.1 μM, each with its own drug) was “decreased pEGFR and pHER2 levels”.
In the case of `CCn1c2ccccc2c2cc(-n3nncc3-c3ccccc3)ccc21` (racemic) [MBQ-167], the “increase in caspase 3/7 activity” value ([2]; MBQ-167 0.25 μM alone, Lap.R SKBR3) is reported as > 2 fold, the caspase activity ([2]; MBQ-167 0.25 μM in combination with lapatinib 0.5 μM, Lap.R SKBR3) is reported as “even higher significant increase in caspase activity” and the apoptosis induction [2, 15] is reported as 55%. For the same molecule, the “decrease in cell viability” value ([3]; 0.5 μM MBQ-167 alone) was ~40%, the “decrease in cell viability” value ([3]; 0.5 μM MBQ-167 in combination with 0.5 μM lapatinib) was ~40% and the reduction of viability [3, 15] was 30%. For the same molecule, the “decrease in cell viability” value ([4]; MBQ-167 alone) was ~40%, the cell viability ([4]; MBQ-167 in the presence of trastuzumab) was “inhibits MDA-MB-435 cell viability” and the “effective concentration lower than NSC23766” value (Rac [6]) was 100 ×. It also gave an IC50 ([7]; SK-BR-3, read-out: IC50 (cell viability)) of 100 nM, a cytotoxicity at 0.25 µM ([7]; 96 and 120h, 250 nM MBQ-167, read-out: reduction of viability) of 90 to 100% and a cytotoxicity at 0.25 µM ([7]; 72 h, saturated at 250 nM, read-out: decrease in viability) of 50%. For the same molecule, the “mammosphere forming efficiency (MFE)” value [8] was “significantly reduce the MFE”, the cell phenotype [9] was “cell rounding, detachment from the substrate, and subsequent death” and the “apoptosis (Caspase 3/7)” value ([10]; MBQ-167 in the presence of Trastuzumab) was “only partially overcame this resistance to apoptosis”. For the same molecule, the “apoptosis (Caspase 3/7)” value ([10]; single agent, MBQ-167 at 250-750 nM) was “induced apoptosis”.
In the case of `CCN(CC)CCCC(C)Nc1nc(C)cc(Nc2ccc3nc(C)cc(N)c3c2)n1` (centres unmarked) [NSC23766], the active concentration (Rac [11]) is given as 50 to 100 µM.
For `COc1cc2ncnc(Nc3ccc(F)c(Cl)c3)c2cc1OCCCN1CCOCC1` [gefitinib], the mammosphere formation [1] was “no significant effect on mammosphere formation”, the “apoptosis (caspase 3/7 activity)” value [12] was “did not respond to gefitinib by apoptosis” and the mammosphere formation [5] was “significant reduction in mammosphere formation”.
With `CCn1c2ccccc2c2cc(Nc3ccnc(NCCCN4CCOCC4)n3)ccc21` [EHop-016] the cell viability ([3]; lapatinib resistant SKBR3, 5 and 10 μM, 24 h) was “statistically significant decrease in cell viability”, the “effective concentration lower than NSC23766” value (Rac [6]) was 100 × and the “mammosphere forming efficiency (MFE)” value [8] was “significantly reduce the MFE”. For the same molecule, the cell viability [13] was “statistically significant decrease in cell viability” and the cell viability [14] was “statistically significant decrease in cell viability”.
